Data as given in paper PMC3523701 (Journal of the American Chemical Society, 2012).

System: SRC
Type: binding
Details: competitor against photo-probe labeling, Figure S1

Row | Structure (SMILES) | competition of active site labeling of SRC
1 | CNC(=O)c1cc(Oc2ccc(NC(=O)Nc3cc(C(C)(C)C)nn3-c3ccc4ncccc4c3)c(F)c2)ccn1 [Rebastinib, reference compound] | able to block active site labeling
2 | Cc1ccc(C(=O)Nc2ccc(CN3CCN(C)CC3)c(C(F)(F)F)c2)cc1C#Cc1cnc2cccnn12 [Ponatinib, reference compound] | able to block active site labeling
